# In patent publication US8044069B2, “Compounds as calcium channel blockers” (Abbott Laboratories, priority 2008, dated 2011):
# pIC50: −log10 of the molar value.
# Molecular target: human Cav2.2 (Homo sapiens, UniProt Q00975)
# Test: Assessment of calcium channel activity using FLIPR (Ca2+ influx in IMR32 cells)
# Assay type: cell-based
# Settings: IMR32 cells endogenously expressing human Cav2.2; 60 minute pre-incubation; 2 μM nifedipine; depolarized with 80 mM KCl, 5 mM CaCl2
# Summary of the method: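 IMR32 cells were dye-loaded and pre-incubated 60 min with compound (10 μM to 0.1 nM) in 1.3 mM CaCl2 plus 2 μM nifedipine to block L-type channels. Cells were then depolarized with 80 mM KCl while Ca2+ was raised to 5 mM, and FLIPR read the influx. IC50 came from a sigmoidal fit of % inhibition versus the no-inhibitor control.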
# Sequence of human Cav2.2 (Q00975 whole entry): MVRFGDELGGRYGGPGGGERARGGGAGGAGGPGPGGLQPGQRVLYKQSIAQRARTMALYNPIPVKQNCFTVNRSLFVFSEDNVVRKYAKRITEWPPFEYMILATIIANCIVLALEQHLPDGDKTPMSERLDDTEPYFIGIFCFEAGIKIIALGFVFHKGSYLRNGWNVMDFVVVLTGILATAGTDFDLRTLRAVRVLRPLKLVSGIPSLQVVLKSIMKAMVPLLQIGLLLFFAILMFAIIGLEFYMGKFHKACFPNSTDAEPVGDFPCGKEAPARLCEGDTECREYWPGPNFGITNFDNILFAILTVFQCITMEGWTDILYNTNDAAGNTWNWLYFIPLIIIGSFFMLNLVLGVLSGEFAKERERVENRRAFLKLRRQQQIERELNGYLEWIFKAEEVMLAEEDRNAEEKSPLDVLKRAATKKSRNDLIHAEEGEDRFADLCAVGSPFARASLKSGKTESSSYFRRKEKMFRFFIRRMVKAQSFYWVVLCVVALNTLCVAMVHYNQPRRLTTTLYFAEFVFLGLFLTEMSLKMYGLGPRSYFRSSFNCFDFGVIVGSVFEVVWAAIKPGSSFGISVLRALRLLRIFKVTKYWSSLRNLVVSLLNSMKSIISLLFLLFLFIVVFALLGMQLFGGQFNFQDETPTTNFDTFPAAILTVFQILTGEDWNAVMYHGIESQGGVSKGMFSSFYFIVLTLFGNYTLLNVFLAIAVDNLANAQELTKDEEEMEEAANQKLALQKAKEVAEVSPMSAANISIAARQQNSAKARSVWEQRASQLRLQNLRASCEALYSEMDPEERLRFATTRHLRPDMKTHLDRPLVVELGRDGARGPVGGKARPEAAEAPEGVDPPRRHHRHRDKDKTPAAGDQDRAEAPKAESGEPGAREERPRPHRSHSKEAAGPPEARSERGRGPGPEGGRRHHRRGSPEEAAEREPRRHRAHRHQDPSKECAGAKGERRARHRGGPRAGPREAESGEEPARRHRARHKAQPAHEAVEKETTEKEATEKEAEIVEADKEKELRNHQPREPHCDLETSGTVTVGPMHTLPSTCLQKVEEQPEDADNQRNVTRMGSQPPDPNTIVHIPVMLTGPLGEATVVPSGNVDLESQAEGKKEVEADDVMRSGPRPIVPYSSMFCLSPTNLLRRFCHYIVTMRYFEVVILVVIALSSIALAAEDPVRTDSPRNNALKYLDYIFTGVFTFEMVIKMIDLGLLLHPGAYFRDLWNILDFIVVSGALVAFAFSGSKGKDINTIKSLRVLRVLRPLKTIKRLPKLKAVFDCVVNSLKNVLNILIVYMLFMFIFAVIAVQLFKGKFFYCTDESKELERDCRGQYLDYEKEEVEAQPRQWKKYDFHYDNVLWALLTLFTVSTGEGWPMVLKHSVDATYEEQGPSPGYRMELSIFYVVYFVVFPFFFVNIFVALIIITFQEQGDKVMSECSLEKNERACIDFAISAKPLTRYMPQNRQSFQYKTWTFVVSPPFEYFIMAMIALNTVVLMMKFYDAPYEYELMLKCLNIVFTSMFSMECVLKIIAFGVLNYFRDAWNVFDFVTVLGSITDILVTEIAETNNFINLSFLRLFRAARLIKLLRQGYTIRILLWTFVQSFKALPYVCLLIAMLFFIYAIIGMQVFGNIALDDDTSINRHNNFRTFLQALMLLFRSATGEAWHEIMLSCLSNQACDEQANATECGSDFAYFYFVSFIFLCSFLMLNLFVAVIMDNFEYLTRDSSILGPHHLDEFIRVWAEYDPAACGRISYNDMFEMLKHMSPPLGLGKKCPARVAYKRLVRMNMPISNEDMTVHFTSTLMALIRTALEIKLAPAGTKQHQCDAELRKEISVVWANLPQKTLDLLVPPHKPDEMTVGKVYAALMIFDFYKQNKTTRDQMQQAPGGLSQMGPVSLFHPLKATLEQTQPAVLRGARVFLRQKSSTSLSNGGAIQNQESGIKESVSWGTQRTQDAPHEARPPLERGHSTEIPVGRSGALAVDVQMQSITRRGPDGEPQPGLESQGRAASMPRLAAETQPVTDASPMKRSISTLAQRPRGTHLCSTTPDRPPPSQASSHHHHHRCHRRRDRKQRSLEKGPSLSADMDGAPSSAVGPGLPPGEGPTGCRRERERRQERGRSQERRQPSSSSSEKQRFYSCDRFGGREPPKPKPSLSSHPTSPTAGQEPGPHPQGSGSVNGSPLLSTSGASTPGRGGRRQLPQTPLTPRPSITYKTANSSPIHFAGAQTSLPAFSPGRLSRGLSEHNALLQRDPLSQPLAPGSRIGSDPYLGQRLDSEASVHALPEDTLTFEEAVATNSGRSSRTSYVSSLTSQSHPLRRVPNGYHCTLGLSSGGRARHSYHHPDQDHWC
# Sequence of human Cav2.2 (P54289 25-951 partner limits assumed): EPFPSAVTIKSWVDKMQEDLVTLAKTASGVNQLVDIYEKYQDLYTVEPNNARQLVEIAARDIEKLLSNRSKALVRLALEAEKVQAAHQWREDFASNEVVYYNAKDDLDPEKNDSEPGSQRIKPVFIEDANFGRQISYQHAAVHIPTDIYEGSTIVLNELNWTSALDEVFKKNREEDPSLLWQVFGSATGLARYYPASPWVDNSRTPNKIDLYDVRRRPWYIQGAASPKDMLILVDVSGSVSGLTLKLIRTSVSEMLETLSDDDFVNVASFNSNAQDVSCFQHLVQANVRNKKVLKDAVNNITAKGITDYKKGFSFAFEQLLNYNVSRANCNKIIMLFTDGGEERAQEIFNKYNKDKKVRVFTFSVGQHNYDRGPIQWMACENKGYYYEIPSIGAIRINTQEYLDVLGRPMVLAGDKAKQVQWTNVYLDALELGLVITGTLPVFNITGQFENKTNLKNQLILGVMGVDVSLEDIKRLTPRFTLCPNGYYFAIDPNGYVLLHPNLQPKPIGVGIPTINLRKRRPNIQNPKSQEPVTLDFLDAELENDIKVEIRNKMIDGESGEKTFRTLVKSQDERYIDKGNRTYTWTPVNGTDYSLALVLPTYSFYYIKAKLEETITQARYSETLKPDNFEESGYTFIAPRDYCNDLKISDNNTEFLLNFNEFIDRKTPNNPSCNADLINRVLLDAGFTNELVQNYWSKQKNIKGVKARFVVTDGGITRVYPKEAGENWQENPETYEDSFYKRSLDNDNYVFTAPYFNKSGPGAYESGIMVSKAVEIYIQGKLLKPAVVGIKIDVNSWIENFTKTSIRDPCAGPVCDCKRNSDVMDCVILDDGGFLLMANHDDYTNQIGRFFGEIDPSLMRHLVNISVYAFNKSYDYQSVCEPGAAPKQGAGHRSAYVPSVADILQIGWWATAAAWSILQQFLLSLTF
# Sequence of human Cav2.2 (P54289 952-1103 partner limits assumed): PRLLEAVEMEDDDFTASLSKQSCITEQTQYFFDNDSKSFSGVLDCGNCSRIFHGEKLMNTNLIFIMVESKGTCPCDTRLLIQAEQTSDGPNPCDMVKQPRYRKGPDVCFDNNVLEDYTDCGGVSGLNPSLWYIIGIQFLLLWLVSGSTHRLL
# Sequence of human Cav2.2 (P54284 whole entry partner): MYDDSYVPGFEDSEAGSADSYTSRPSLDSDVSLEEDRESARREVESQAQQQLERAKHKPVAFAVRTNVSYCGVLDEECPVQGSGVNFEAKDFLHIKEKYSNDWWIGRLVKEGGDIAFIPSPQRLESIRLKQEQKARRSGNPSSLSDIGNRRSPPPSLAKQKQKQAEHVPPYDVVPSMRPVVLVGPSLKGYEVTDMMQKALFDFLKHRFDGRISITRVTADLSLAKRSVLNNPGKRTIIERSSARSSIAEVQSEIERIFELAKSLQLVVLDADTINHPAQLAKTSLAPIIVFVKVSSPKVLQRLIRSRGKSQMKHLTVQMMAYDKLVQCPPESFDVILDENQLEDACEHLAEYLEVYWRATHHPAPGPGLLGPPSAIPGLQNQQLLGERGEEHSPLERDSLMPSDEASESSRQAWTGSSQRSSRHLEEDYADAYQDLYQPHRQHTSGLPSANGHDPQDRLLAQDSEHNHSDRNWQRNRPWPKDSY
row,pIC50,SMILES
1,5.85,"COc1ccccc1N1CCN(CCCN2CCCC(c3ccc(F)cc3)(c3ccc(F)cc3)C2=O)CC1 [Example 138, 3,3-bis(4-fluorophenyl)-1-{3-[4-(2-methoxyphenyl)piperazin-1-yl]propyl}piperidin-2-one]"
2,6.19,"O=C(CN1CCC(c2ccccc2)(c2ccccc2)C1=O)N1CCC(C(c2ccccc2)c2ccccc2)CC1 [Example 30, 1-[2-(4-benzhydrylpiperidin-1-yl)-2-oxoethyl]-3,3-diphenylpyrrolidin-2-one]"
3,5.74,"O=C1CN(CCN2CCC(c3ccccc3)(c3ccccc3)C2=O)CCN1C(c1ccccc1)c1ccccc1 [Example 66, 1-benzhydryl-4-[2-(2-oxo-3,3-diphenylpyrrolidin-1-yl)ethyl]piperazin-2-one]"
4,6.00,"O=C(CN1CCCC(c2ccccc2)(c2ccccc2)C1=O)NC1CCN(Cc2cccc(C(F)(F)F)c2)CC1 [Example 200, 2-(2-oxo-3,3-diphenylpiperidin-1-yl)-N-{1-[3-(trifluoromethyl)benzyl]piperidin-4-yl}acetamide]"
5,5.68,"O=C1CN(C(c2ccccc2)c2ccccc2)CCN1CCN1CCC(c2ccccc2)(c2ccccc2)C1=O [Example 64, 4-benzhydryl-1-[2-(2-oxo-3,3-diphenylpyrrolidin-1-yl)ethyl]piperazin-2-one]"
6,5.55,"O=C1[C@@H](c2ccc(F)cc2)CCN1Cc1nc(-c2ccc(C(F)(F)F)cc2)no1 (single isomer, unassigned) [Example 237]"
7,5.58,"O=C1N(Cc2nc(-c3ccc(C(F)(F)F)nc3)no2)CCC1(c1ccc(F)cc1)c1ccc(F)cc1 [Example 212, 3,3-bis(4-fluorophenyl)-1-({3-[6-(trifluoromethyl)pyridin-3-yl]-1,2,4-oxadiazol-5-yl}methyl)pyrrolidin-2-one]"
8,5.39,"O=C1N(Cc2nc(-c3ccc(F)cc3)no2)CCC1(c1ccccc1)c1ccccc1 [Example 194, 1-{[3-(4-fluorophenyl)-1,2,4-oxadiazol-5-yl]methyl}-3,3-diphenylpyrrolidin-2-one]"
9,5.31,"O=C1N(Cc2nc(-c3ccc(O)cc3)no2)CCCC1(c1ccccc1)c1ccccc1 [Example 206, 1-{[3-(4-hydroxyphenyl)-1,2,4-oxadiazol-5-yl]methyl}-3,3-diphenylpiperidin-2-one]"
10,5.94,"O=C(CN1CCCC(c2ccccc2)(c2ccccc2)C1=O)N[C@H]1CCN(Cc2cccc(C(F)(F)F)c2)C1 [Example 185, 2-(2-oxo-3,3-diphenylpiperidin-1-yl)-N-{(3S)-1-[3-(trifluoromethyl)benzyl]pyrrolidin-3-yl}acetamide]"
11,4.98,"CC(C)(C)c1ccc(-c2noc(CN3CCC(c4ccccc4)(c4ccccc4)C3=O)n2)cc1 [Example 202, 1-{[3-(4-tert-butylphenyl)-1,2,4-oxadiazol-5-yl]methyl}-3,3-diphenylpyrrolidin-2-one]"
12,6.05,"CC(CNC(=O)CN1CCC(c2ccccc2)(c2ccccc2)C1=O)(c1ccccc1)c1ccccc1 [Example 16, N-(2,2-diphenylpropyl)-2-(2-oxo-3,3-diphenylpyrrolidin-1-yl)acetamide]"
13,5.77,"CC(CNC(=O)CN1CCCC(c2ccccc2)(c2ccccc2)C1=O)(c1ccccc1)c1ccccc1 [Example 77, N-(2,2-diphenylpropyl)-2-(2-oxo-3,3-diphenylpiperidin-1-yl)acetamide]"
14,6.02,"O=C(CN1CCC(c2ccc(F)cc2)(c2ccc(F)cc2)C1=O)N1C[C@@H]2CCCN(Cc3cccc(C(F)(F)F)c3)[C@@H]2C1 [Example 210, 3,3-bis(4-fluorophenyl)-1-(2-oxo-2-{(4aS,7aS)-1-[3-(trifluoromethyl)benzyl]octahydro-6H-pyrrolo[3,4-b]pyridin-6-yl}ethyl)pyrrolidin-2-one]"
15,5.35,"O=C(CN1CCC(c2ccccc2)(c2ccccc2)C1=O)Nc1ccc(Cl)cn1 [Example 5, N-(5-chloropyridin-2-yl)-2-(2-oxo-3,3-diphenylpyrrolidin-1-yl)acetamide]"
16,5.34,"O=C(CN1CCCC(c2ccc(F)cc2)(c2ccc(F)cc2)C1=O)N1CCN(C(c2ccccc2)c2ccccc2)CC1 [Example 90, 1-[2-(4-benzhydrylpiperazin-1-yl)-2-oxoethyl]-3,3-bis(4-fluorophenyl)piperidin-2-one]"
17,5.94,"COc1cccc(C2(C(C)C)CCCN(CCCN(C)CCc3ccc(F)cc3)C2=O)c1 (stereo not shown) [Example 129, 1-{3-[[2-(4-fluorophenyl)ethyl](methyl)amino]propyl}-3-isopropyl-3-(3-methoxyphenyl)piperidin-2-one]"
18,5.46,"O=C1N(Cc2nc(COc3ccc(Cl)cc3)no2)CCCC1(c1ccccc1)c1ccccc1 [Example 263, 1-({3-[(4-chlorophenoxy)methyl]-1,2,4-oxadiazol-5-yl}methyl)-3,3-diphenylpiperidin-2-one]"
19,5.61,"CC(C)N1CCN(CC(=O)N2CCN(C(c3ccc(F)cc3)c3ccc(F)cc3)CC2)C(=O)C1c1ccccc1 (stereo not shown) [Example 273, 1-(2-(4-(bis(4-fluorophenyl)methyl)piperazin-1-yl)-2-oxoethyl)-4-isopropyl-3-phenylpiperazin-2-one]"

row,pIC50,SMILES
1,5.95,"COc1ccc(CCN(C)CCN2CCCC(c3cccc(OC)c3)(C(C)C)C2=O)cc1 (stereo not shown) [Example 130, 3-isopropyl-3-(3-methoxyphenyl)-1-{2-[[2-(4-methoxyphenyl)ethyl](methyl)amino]ethyl}piperidin-2-one]"
2,5.86,"O=C(CN1CCCC(c2ccccc2)(c2ccccc2)C1=O)N1CCN(Cc2ccc(C(F)(F)F)cc2)CC1 [Example 80, 1-(2-oxo-2-{4-[4-(trifluoromethyl)benzyl]piperazin-1-yl}ethyl)-3,3-diphenylpiperidin-2-one]"
3,5.50,"COc1ccc(C2(c3ccc(OC)cc3)CCCN(CCN(C)C3Cc4ccccc4C3)C2=O)cc1 [Example 113, 1-{2-[2,3-dihydro-1H-inden-2-yl(methyl)amino]ethyl}-3,3-bis(4-methoxyphenyl)piperidin-2-one]"
4,5.72,"COc1ccc(C2(c3ccc(OC)cc3)CCCN(CCN(C)CCc3cccc(OC)c3)C2=O)cc1 [Example 124, 3,3-bis(4-methoxyphenyl)-1-{2-[[2-(3-methoxyphenyl)ethyl](methyl)amino]ethyl}piperidin-2-one]"
5,6.12,"O=C(CN1CCCC(c2ccccc2)(c2ccccc2)C1=O)N1CCC(NC(c2ccccc2)c2ccccc2)CC1 [Example 87, 1-{2-[4-(benzhydrylamino)piperidin-1-yl]-2-oxoethyl}-3,3-diphenylpiperidin-2-one]"
6,5.34,"O=C(CN1CCCC(c2ccccc2)(c2ccccc2)C1=O)NC1CCOc2ccc(F)cc21 (stereo not shown) [Example 75, N-(6-fluoro-3,4-dihydro-2H-chromen-4-yl)-2-(2-oxo-3,3-diphenylpiperidin-1-yl)acetamide]"
7,6.17,"COc1cc(CN2CCN(CCCN3CCCC(c4cccc(OC)c4)(C(C)C)C3=O)CC2)cc(OC)c1 (stereo not shown) [Example 133, 1-{3-[4-(3,5-dimethoxybenzyl)piperazin-1-yl]propyl}-3-isopropyl-3-(3-methoxyphenyl)piperidin-2-one]"
8,6.34,"O=C(CN1CCC(c2ccccc2)(c2ccccc2)C1=O)N1CCC(c2ccccc2)(c2ccccc2)CC1 [Example 25, 1-[2-(4,4-diphenylpiperidin-1-yl)-2-oxoethyl]-3,3-diphenylpyrrolidin-2-one]"
9,6.14,"O=C(CN1CCCC(c2ccccc2)(c2ccccc2)C1=O)NC1CN(Cc2ccc(F)c(C(F)(F)F)c2)C1 [Example 198, N-{1-[4-fluoro-3-(trifluoromethyl)benzyl]azetidin-3-yl}-2-(2-oxo-3,3-diphenylpiperidin-1-yl)acetamide]"
10,5.86,"O=C(CN1CCCC(c2ccccc2)(c2ccccc2)C1=O)N1CCN(C(=O)OCc2ccccc2)CC1 [Example 182, benzyl 4-[(2-oxo-3,3-diphenylpiperidin-1-yl)acetyl]piperazine-1-carboxylate]"
11,5.19,"O=C1N(CCN2CCN(c3ncccn3)CC2)CCCC1(c1ccccc1)c1ccccc1 [Example 134, 3,3-diphenyl-1-[2-(4-pyrimidin-2-ylpiperazin-1-yl)ethyl]piperidin-2-one]"
12,5.56,"O=C1N(Cc2nc(-c3ccc(Cl)nc3)no2)CCC1(c1ccccc1)c1ccccc1 [Example 214, 1-{[3-(6-chloropyridin-3-yl)-1,2,4-oxadiazol-5-yl]methyl}-3,3-diphenylpyrrolidin-2-one]"
13,5.09,"O=C1N(S(=O)(=O)c2ccc(C(F)(F)F)cc2)CCC1(c1ccccc1)c1ccccc1 [Example 149, 3,3-diphenyl-1-{[4-(trifluoromethyl)phenyl]sulfonyl}pyrrolidin-2-one]"
14,5.64,"O=C(CN1CCC(c2ccccc2)(c2ccccc2)C1=O)N1CCC[C@@H]2CN(C(c3ccccc3)c3ccccc3)C[C@@H]21 [Example 51, 1-{2-[(4aR,7aR)-6-benzhydryloctahydro-1H-pyrrolo[3,4-b]pyridin-1-yl]-2-oxoethyl}-3,3-diphenylpyrrolidin-2-one]"
15,5.64,"COc1ccc(C2(c3ccc(OC)cc3)CCCN(CCCN3CCN(Cc4cc(OC)cc(OC)c4)CC3)C2=O)cc1 [Example 131, 1-{3-[4-(3,5-dimethoxybenzyl)piperazin-1-yl]propyl}-3,3-bis(4-methoxyphenyl)piperidin-2-one]"
16,5.72,"O=C(CN1CCC(c2ccccc2)(c2ccccc2)C1=O)N1CCC(=C(c2ccccc2)c2ccccc2)CC1 [Example 31, 1-{2-[4-(diphenylmethylene)piperidin-1-yl]-2-oxoethyl}-3,3-diphenylpyrrolidin-2-one]"
17,5.36,"O=C(CN1CCC(c2ccc(F)cc2)C1=O)N1CCc2ccc(C(F)(F)F)cc2C1 (stereo not shown) [Example 254, 3-(4-fluorophenyl)-1-{2-oxo-2-[7-(trifluoromethyl)-3,4-dihydroisoquinolin-2(1H)-yl]ethyl}pyrrolidin-2-one]"
18,5.78,"COc1cc(CN2CCN(CCN3CCC(c4ccc(F)cc4)(c4ccc(F)cc4)C3=O)CC2)cc(OC)c1 [Example 63, 1-{2-[4-(3,5-dimethoxybenzyl)piperazin-1-yl]ethyl}-3,3-bis(4-fluorophenyl)pyrrolidin-2-one]"
